Measured values from PubChem BioAssay (NCI).
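Grown in 96-well plates, cells were treated for 48 hours with each compound at five concentrations. Insufficient inhibition: endpoint recorded as highest concentration tested. The concentration for full growth arrest is given as TGI.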

Tests used:
Assay in all cases: NCI-60 cell line screen, 48 h
[1] = test system: SN12C renal
[2] = test system: OVCAR-3 ovarian
[3] = test system: UO-31 renal
[4] = test system: DMS 273 small cell lung
[5] = test system: HCC-2998 colon
[6] = test system: CCRF-CEM leukemia
[7] = test system: A549 NSCLC
[8] = test system: MALME-3M melanoma
[9] = test system: NCI-H522 lung
[10] = test system: XF 498 CNS
[11] = test system: NCI-H23 lung
[12] = test system: COLO 205 colon
[13] = test system: HCT-116 colon
[14] = test system: HOP-62 NSCLC
[15] = test system: HCT-15 colon
[16] = test system: ACHN renal
[17] = test system: UACC-257 melanoma
[18] = test system: MOLT-4 leukemia
[19] = test system: SK-MEL-28 melanoma
[20] = test system: M19-MEL melanoma
[21] = test system: NCI-H226 lung
[22] = test system: LOX IMVI melanoma
[23] = test system: EKVX NSCLC
[24] = test system: SF-295 CNS
[25] = test system: HT29 colon
[26] = test system: 786-0 renal
[27] = test system: RXF 393 renal
[28] = test system: SK-OV-3 ovarian
[29] = test system: SF-539 CNS
[30] = test system: LXFL 529 NSCLC
[31] = test system: HL-60(TB) leukemia
[32] = test system: TK-10 renal
[33] = test system: OVCAR-8 ovarian
[34] = test system: K-562 leukemia
[35] = test system: KM20L2 colon
[36] = test system: SW-620 colon
[37] = test system: NCI-H460 lung
[38] = test system: SF-268 CNS
[39] = test system: IGROV1 ovarian
[40] = test system: SNB-19 CNS
[41] = test system: KM12 colon
[42] = test system: M14 melanoma
[43] = test system: SK-MEL-5 melanoma
[44] = test system: U251 CNS
[45] = test system: RPMI-8226 leukemia
[46] = test system: SR leukemia
[47] = test system: DMS 114 small cell lung
[48] = test system: SK-MEL-2 melanoma
[49] = test system: HOP-92 NSCLC
[50] = test system: SNB-78 CNS
[51] = test system: UACC-62 melanoma
[52] = test system: CAKI-1 renal
[53] = test system: A498 renal
[54] = test system: OVCAR-4 ovarian
[55] = test system: DLD-1 colon
[56] = test system: SNB-75 CNS

O=C1CCC2(CCC(=O)NC2=O)C(=O)N1
TGI [1]: > 100 µM | TGI [2]: > 100 µM | TGI [3]: > 100 µM | TGI [4]: > 100 µM | TGI [5]: > 100 µM | TGI [6]: > 100 µM | TGI [7]: > 100 µM | TGI [8]: > 100 µM | TGI [9]: > 100 µM | TGI [10]: > 100 µM | TGI [11]: > 100 µM | TGI [12]: > 100 µM | TGI [13]: > 100 µM | TGI [14]: > 100 µM | TGI [15]: > 100 µM | TGI [16]: > 100 µM | TGI [17]: > 100 µM | TGI [18]: > 100 µM | TGI [19]: > 100 µM | TGI [20]: > 100 µM | TGI [21]: > 100 µM | TGI [22]: > 100 µM | TGI [23]: > 100 µM | TGI [24]: > 100 µM | TGI [25]: > 100 µM | TGI [26]: > 100 µM | TGI [27]: > 100 µM | TGI [28]: > 100 µM | TGI [29]: > 100 µM | TGI [30]: > 100 µM | TGI [31]: > 100 µM | TGI [32]: > 100 µM | TGI [33]: > 100 µM | TGI [34]: > 100 µM | TGI [35]: > 100 µM | TGI [36]: > 100 µM | TGI [37]: > 100 µM | TGI [38]: > 100 µM | TGI [39]: > 100 µM | TGI [40]: > 100 µM | TGI [41]: > 100 µM | TGI [42]: > 100 µM | TGI [43]: > 100 µM | TGI [44]: > 100 µM | TGI [45]: > 100 µM | TGI [46]: > 100 µM | TGI [47]: > 100 µM

CCOc1ccc(NC(=O)c2c(N/N=C/c3ccc(OC)cc3)nc(=O)[nH]c2C)cc1
TGI [48]: > 100 µM | TGI [49]: > 100 µM | TGI [50]: > 100 µM | TGI [1]: > 100 µM | TGI [51]: > 100 µM | TGI [3]: > 100 µM | TGI [4]: > 100 µM | TGI [5]: > 100 µM | TGI [6]: > 100 µM | TGI [52]: > 100 µM | TGI [8]: > 100 µM | TGI [9]: 69.7 µM | TGI [10]: > 100 µM | TGI [11]: > 100 µM | TGI [12]: > 100 µM | TGI [13]: > 100 µM | TGI [14]: > 100 µM | TGI [15]: > 100 µM | TGI [16]: > 100 µM | TGI [18]: > 100 µM | TGI [19]: > 100 µM | TGI [53]: 39.4 µM | TGI [20]: > 100 µM | TGI [21]: > 100 µM | TGI [26]: > 100 µM | TGI [28]: 83.1 µM | TGI [54]: 88.4 µM | TGI [29]: 91 µM | TGI [30]: > 100 µM | TGI [55]: > 100 µM | TGI [31]: > 100 µM | TGI [34]: > 100 µM | TGI [37]: > 100 µM | TGI [38]: > 100 µM | TGI [39]: > 100 µM | TGI [56]: 96.5 µM | TGI [42]: > 100 µM | TGI [45]: > 100 µM | TGI [46]: > 100 µM
